From US11649239B2, “Crystal form a of (5-amino-8-(2-methyl-6-(trifluoromethyl)pyridin-4-yl)-7-phenyl-[1,2,4]triazolo[1,5-c]pyrimidin-2-yl)methanol (compound 1)” (Medshine Discovery Inc., priority 2018, dated 2023)
Values after ≈ are worked out from the molar mass of the structure shown. “Also recorded” adds a separate entry of the source.

Columns and labels:
[1] = Determination of solubility of crystal form A of compound 1 in single or mixed solvents; format: physicochemical; conditions: for solubility: organic solvent or mixture, thermodynamic from solid
Experimental: Assay Example 1: Determination of Solubility of Crystal Form A of Compound 1
Multiple portions of about 2.0 mg of crystal form A of compound 1 were weighed in parallel and placed in glass vials. Various single solvents or mixed solvents listed in Table 2 were gradually added in small amount, and shaken constantly, while the dissolution of the compound was observed. The solubility of the compound was calculated based on the weight of the weighed compound and the volume of the correspondingly added solvent.

CT26 cells = experiment: Pharmacodynamics in vivo in CT-26 model (subcutaneous CT26 tumor in BALB/c nude mice); conditions: anti-PD-1 5 mg/Kg QW; for Volume of tumor: crystal form A 50 mg/Kg BID oral
From the text: Assay Example 4: Study of Pharmacodynamics of Crystal Form a of Compound 1 In Vivo in CT-26 Model
BALB/c nude mice (female, 7 weeks old, and weighing about 16 to 20 g) were kept in a breeding environment of SPF-class animal room, and in single ventilated cages (5 mice per cage). Bedding and water in all cages were disinfected before use. All the animals had free access to the standard certified commercial laboratory diet. A total of 80 mice were purchased from Shanghai Slack Laboratory Animal Co., Ltd. Anti-PD-1 antibody was purchased from BioXcell with the clone of RMP-14 and the product number of BP0146. 0.1 mL of 3×10^5 CT26 cells were subcutaneously inoculated in the right back of each mouse, and the mice were randomly divided into groups for administration.
CT26 cells were subcutaneously inoculated in the right back of each BALB/c nude mouse to test pharmacodynamics in vivo. In the assay, the test compound was administered orally every day for 22 consecutive days, and the anti-PD-1 antibody was administered once per week for three consecutive weeks. The volume of the tumor was measured twice a week with a two-dimensional caliper, and the volume was measured in cubic millimeter, which was calculated by the following formula: V=0.5 a×b^2, wherein a and b were the long and short diameters of the tumor, respectively. The anti-tumor efficacy was determined by dividing the average volume increase of the tumors of animals treated with the compound by the average volume increase of the tumors of the untreated animals. (BID means twice a day)

[2] = molecular target: T1, human adenosine A2a receptor (Homo sapiens, UniProt P29274); experiment: Calcium flux assay of the human adenosine A2a receptor (FLIPR, CHO cells stably expressing A2a, agonist NECA); format: cell-based; conditions: conclusion on Table 3
T1 construct: host or cells: CHO cells
T1 sequence (P29274 whole entry): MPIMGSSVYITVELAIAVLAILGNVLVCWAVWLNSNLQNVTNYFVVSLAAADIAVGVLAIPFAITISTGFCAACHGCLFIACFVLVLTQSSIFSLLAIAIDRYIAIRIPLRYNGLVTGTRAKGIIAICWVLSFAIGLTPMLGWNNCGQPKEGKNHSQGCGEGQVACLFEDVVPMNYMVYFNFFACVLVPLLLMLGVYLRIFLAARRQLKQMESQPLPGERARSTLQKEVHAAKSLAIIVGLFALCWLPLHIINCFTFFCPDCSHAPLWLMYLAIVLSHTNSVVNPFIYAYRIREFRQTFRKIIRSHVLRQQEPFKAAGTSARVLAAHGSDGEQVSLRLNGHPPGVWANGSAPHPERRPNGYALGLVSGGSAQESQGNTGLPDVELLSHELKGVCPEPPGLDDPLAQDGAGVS
Experimental: Calcium Flux Assay of the Human Adenosine A2a Receptor
The cell line stably expressing A2a was constructed by Shanghai WuXi AppTec, and the host cells were CHO cells.
Fluo-4 Direct kit (Invitrogen, Cat. No. F10471). The fluorescence detection reagent in the kit (which can specifically bind to calcium ions and cause an increase in the fluorescence signal) was incubated with the cells for an appropriate period of time, and the compounds were added to stimulate the cells to cause changes in the intracellular calcium flux, thereby causing changes in the fluorescence signal, which can reflect the strength of the agonistic or inhibitory activity of the compounds. […]
FLIPR instrument software was run. According to the set program, 10 μl of the compound dilution buffer was added to the cell plate, and the fluorescence signal was read. Then 10 μl of a predetermined concentration of the agonist as a reference compound was added to the cell plate, and the fluorescence signal was read. After the reading, data was exported through the “Max-Min” and “Read 90 to Maximum allowed” methods in the software. EC80 of the A2A cell line was calculated, and the agonist with a concentration of 6×EC80 was prepared. […]
FLIPR instrument software was run. […] Again, 10 μl of the agonist as a reference compound with a concentration of 6×EC80 was added to the cell plate, and the fluorescence signal was read. […]

[3] = Pharmacokinetics in female Balb/c mice after intravenous injection and oral administration; format: in vivo
Experimental: Object of the assay: to test the pharmacokinetics of the compound in female Balb/c mice in vivo
Balb/c mice (female, 15 to 30 g, 7 to 9 weeks old, from Shanghai Lingchang Biotechnology Company)
The pharmacokinetic profile of the compound after intravenous injection and oral administration in the rodents was tested by the standard protocol. In the assay, the candidate compound was prepared into a clear solution to be administered to the mice through a single intravenous injection and prepared into a homogeneous suspension to be administered to the mice through a single oral administration. The vehicle for the intravenous injection was 5% DMSO/95% 10% Cremophor EL, and the vehicle for the oral administration was 1% Tween 80, 9% PEG400, and 90% water. The whole blood sample was collected within 24 hours, and centrifuged at 3000 g at 4° C. for 15 minutes. The supernatant was separated to give the plasma sample, and 20 times volume of acetonitrile solution containing an internal standard was added to precipitate the proteins. […] The supernatant was taken out, and injected as a sample to quantitatively analyze the plasma drug concentration by LC-MS/MS analysis method. The pharmacokinetic parameters were calculated, such as peak concentration, peak time, clearance rate, half-life, area under the drug-time curve, bioavailability, etc.

Cc1cc(-c2c(-c3ccccc3)nc(N)n3nc(CO)nc23)cc(C(F)(F)F)n1 [Crystal form A of compound 1, (5-amino-8-(2-methyl-6-(trifluoromethyl)pyridin-4-yl)-7-phenyl-[1,2,4]triazolo[1,5-c]pyrimidin-2-yl)methanol]
Solubility in the solvents of Table 2 (in words) ([1]; conclusion on Table 2): good solubility | solubility ([1]; solvent 1,4-Dioxane): 35 to 52.5 mg/mL (≈ 87.4 to 131 mM) | solubility ([1]; solvent Acetone): 33.3 to 50 mg/mL (≈ 83.2 to 125 mM) | solubility ([1]; solvent Acetonitrile): 12.2 to 13.8 mg/mL (≈ 30.5 to 34.5 mM) | solubility ([1]; solvent Acetonitrile:Water (2:1)): 26.3 to 35 mg/mL (≈ 65.7 to 87.4 mM) | solubility ([1]; solvent Ethanol): 28.8 to 38.3 mg/mL (≈ 71.9 to 95.7 mM) | solubility ([1]; solvent Ethanol:Water (3:1)): 25 to 50 mg/mL (≈ 62.4 to 125 mM) | solubility ([1]; solvent Ethyl acetate): 12.5 to 16.7 mg/mL (≈ 31.2 to 41.7 mM) | solubility ([1]; solvent Isopropanol): 14.4 to 16.4 mg/mL (≈ 36 to 41 mM) | solubility ([1]; solvent Methanol): 47.5 to 95 mg/mL (≈ 119 to 237 mM) | solubility ([1]; solvent Methyl ethyl ketone): 36.7 to 55 mg/mL (≈ 91.7 to 137 mM) | solubility ([1]; solvent N-butanol): 15.7 to 18.3 mg/mL (≈ 39.2 to 45.7 mM) | solubility ([1]; solvent Tetrahydrofuran): > 105 mg/mL | Anti-tumor effect (in words) (CT26 cells; CT-26 mouse model, crystal form A 50 mg/Kg BID): has an anti-tumor effect; also recorded: significant inhibitory effect on the tumor | Volume of tumor (CT26 cells; Day 10): 47 mm^3 | Volume of tumor (CT26 cells; Day 13): 127 mm^3 | Volume of tumor (CT26 cells; Day 15): 204 mm^3 | Volume of tumor (CT26 cells; Day 18): 312 mm^3 | Volume of tumor (CT26 cells; Day 20): 409 mm^3 | Volume of tumor (CT26 cells; Day 22): 538 mm^3

Cc1cc(-c2c(-c3ccccc3)nc(N)n3nc(CO)nc23)cc(C(F)(F)F)n1 [Compound 1, (5-amino-8-(2-methyl-6-(trifluoromethyl)pyridin-4-yl)-7-phenyl-[1,2,4]triazolo[1,5-c]pyrimidin-2-yl)methanol]
Antagonistic activity against the adenosine A2a receptor (in words) [2]: excellent antagonistic activity | Pharmacokinetic index in mice (in words) ([3]; conclusion on Table 4): excellent pharmacokinetic index | clearance ([3]; mouse, plasma, female Balb/c mice, single intravenous injection, read-out: Clearance rate): 18 mL/min/kg
